One test addresses mTOR/GbL/Raptor (mTORC1) (Homo sapiens, UniProt P42345). The test can be described thus: mTOR/GbL/Raptor (mTORC1) ELISA Assay. The test is classed as biochemical. Conditions: 4EBP1 used as substrate for mTOR/GbL/raptor kinase; read-out: PI3K biochemical IC50 values mTOR. As for the experimental part:
The measurement of mTORC1 enzyme activity was performed in an ELISA assay format following the phosphorylation of 4E-BP1 protein. All experiments were performed in the 384-well format. Generally, 0.5 μL DMSO containing varying concentrations of the test Compound was mixed with 15 μL enzyme solution. Kinase reactions were initiated with the addition of 15 μL of substrates-containing solution. The assay conditions were as follows; 0.2 nM mTORC1, 10 μM ATP and 50 nM NHis-tagged 4E-BPI in 20 mM Hepes, pH 7.2, 1 mM DTT, 50 mM NaCl, 10 mM MnCl2, 0.02 mg/mL BSA, 0.01% CHAPS, 50 mM β-glycerophosphate. Following an incubation of 120 minutes at ambient temperature, 20 μL of the reaction volume was transferred to a Ni-Chelate-coated 384-well plate. The binding step of the 4E-BP1 protein proceeded for 60 minutes, followed by washing 4 times each with 50 μL of Tris-buffered saline solution (TBS). Anti-phospho-4E-BP1 rabbit-IgG (20 μL, 1:5000) in 5% BSA-TBST (0.2% Tween-20 in TBS) was added and further incubated for 60 minutes. Incubation with a secondary HRP-tagged anti-IgG was similarly performed after washing off the primary antibody (4 washes of 50 μL). Following the final wash step with TBST, 20 μL of SuperSignal ELISA Femto (Pierce Biotechnology) was added and the luminescence measured using an EnVision plate reader.
On the technique in general: In an ELISA, binding on a coated surface is turned into a signal by an enzyme label.

The next test has as its target PI3Kβ (Homo sapiens, UniProt P42338). The test can be described thus: PI3K Biochemical Assay. Conditions: PIP2 used as substrate. As for the experimental part: PI3Kα activity is measured as the percent of ATP consumed following the kinase reaction using luciferase-luciferin-coupled chemiluminescence. Reactions were conducted in 384-well white, medium binding microtiter plates (Greiner). Kinase reactions were initiated by combining test compounds, ATP, substrate (PIP2), and kinase in a 20 μL volume in a buffer solution. The standard PI3Kalpha assay buffer is composed 50 mM Tris, pH 7.5, 1 mM EGTA, 10 mM MgCl2, 1 mM DTT and 0.03% CHAPS. The standard assay concentrations for enzyme, ATP, and substrate are 1.5 nM, 1 μM, and 10 μM, respectively. The reaction mixture was incubated at ambient temperature for approximately 2 h. Following the kinase reaction, a 10 μL aliquot of luciferase-luciferin mix (Promega Kinase-Glo) was added and the chemiluminescence signal measured using a Victor2 plate reader (Perkin Elmer). […] Substituting PI3Kα with PI3Kβ, PI3Kγ, or PI3Kδ, the inhibitory activity of the compounds for the other isoforms of I3K were measured.

Test [1] has as its system pAKT (T308) in PC-3 cells (PTEN-null). The test can be described thus: pAKT (T308) ELISA Assay. The test is classed as cell-based. Conditions: Homo sapiens. As for the experimental part: MCF-7 cells (ATCC) cells were seeded at 24000 cells per well in 96-well plates (Corning, 3904) in DMEM (Cellgro) containing 10% FBS (Cellgro), 1% NEAA (Cellgro) and 1% penicillin-streptomycin (Cellgro). Cells were incubated at 37° C., 5% CO2 for 48 h, and the growth medium was replaced with serum-free DMEM or in medium containing 0.4% BSA. Serial dilutions of the test Compound in 0.3% DMSO (vehicle) were added to the cells and incubated for 3 h. At the end of the incubation period, cells were stimulated for 10 minutes by the addition of L-IGF (Sigma, I-1271) at a final concentration of 100 ng/ml. Afterwards, media was discarded from cell plates and 110 μl/well of cold lysis buffer (see table below) were added. Cell plates were incubated on ice and then put on shaker in 4° C. cold room for 1 h. Two capture plates (Thermo Scientific, Reacti-bind plate, 15042) were prepared for each cell plate by pre-coating with capture Akt antibody from the two sandwich ELISA antibody pairs used (Cell Signaling Technology 7142 and 7144). The Akt capture antibodies were diluted 1:100 in PBS and 100 μl of diluted capture antibody was added per well. Capture plates were incubated at 4 C overnight. […] After 1 h of cell lysis, 85 μl of cell lysate/well was transferred to the capture plate for detection of pAkt(T308). 15 μl of cell lysate was transferred from same well to the second capture plate for detection of total Akt1. After incubation overnight at 4° C., plates were washed 3 times with 200 μL TBST. Primary antibodies, diluted 1:100 in blocking buffer, were added to the corresponding capture plates for pAkt(T308) (Cell Signaling Technology, 7144) and total Akt1 (Cell Signaling Technology, 7142) detection and incubated at room temperature for 1 h. Plates were washed 3 times with 200 μL of TBST. Goat anti-mouse secondary antibody (Cell Signaling Technology, 7076) conjugated to HRP was diluted 1:1000 in blocking buffer and 100 μl were added to each well and incubated for 30 minutes at room temperature. Plates were then washed 3 times with 200 μL of TBST. 100 μL of SuperSignal ELISA Femto stable peroxidase solution (Thermo Scientific, 37075) was added to each well. After 1 minute incubation, chemiluminescence was read on a Wallac Victor2 1420 multilabel counter. IC50 values were determined based on the ratio of pAkt(T308) to total Akt1 signal for Compound treated wells, normalized to the DMSO-treated control wells.
In another embodiment, the pAKT ELISA Assay was performed by seeding cells onto 96-well plates (Corning, 3904) in their respective growth media at the densities listed in Table 5. Cells were incubated at 37° C., 5% CO2 for 48 h (except MDA-MB-453 cells which were cultured in the absence of CO2). Compounds were serially diluted in DMSO and subsequently diluted in serum-free DMEM. Test compounds were added to cells in serum-free DMEM at a final concentration of 0.3% DMSO and incubated for 3 h. Cells were lysed with 130 μL of ice-cold RIPA lysis buffer (50 mM Tris-HCl, pH 7.5; 0.5% sodium deoxycholic acid; 1% Triton X-100; 0.1% SDS; 150 mM NaCl) with protease and phosphatase inhibitors (1 mM EDTA, 1 mM NaF, 20 mM β-glycerophosphate, 1 mM Na-orthovanadate, Complete-Mini EDTA-free, Roche, 11836170001, and Phosphatase Inhibitor Cocktail I, Sigma, P2850), directly in 96-well plates. Cells were lysed on ice for 60-120 min at 4° C. The supernatants were added directly to capture ELISA plates previously pre-coated with rabbit anti-AKT capture antibody. ELISA assays for pAKT(T308) and total AKT were performed with the pAKT(T308) ELISA kit (Cell Signaling Technology, 7144) and AKT1 ELISA kit (Cell Signaling Technology, 7142). For the pAKT(T308) ELISA, 85 μL of cell lysate was added to each well. For the total AKT1 ELISA, 15 μL of cell lysate and 85 μL of Starting Block buffer (Pierce, 37543) were added to each well.

Setting [2] is: IGF1 stimulation, read-out: pAKT (T308) IC50 PC# PTEN-null IGF1.
Setting [3] is: LPA stimulation, read-out: pAKT (T308) IC50 PC# PTEN-null LPA.

SMILES strings stand for the structures. Like-named read-outs stand apart in the source and are kept apart here.

Sequence of PI3Kβ (P42338 whole entry): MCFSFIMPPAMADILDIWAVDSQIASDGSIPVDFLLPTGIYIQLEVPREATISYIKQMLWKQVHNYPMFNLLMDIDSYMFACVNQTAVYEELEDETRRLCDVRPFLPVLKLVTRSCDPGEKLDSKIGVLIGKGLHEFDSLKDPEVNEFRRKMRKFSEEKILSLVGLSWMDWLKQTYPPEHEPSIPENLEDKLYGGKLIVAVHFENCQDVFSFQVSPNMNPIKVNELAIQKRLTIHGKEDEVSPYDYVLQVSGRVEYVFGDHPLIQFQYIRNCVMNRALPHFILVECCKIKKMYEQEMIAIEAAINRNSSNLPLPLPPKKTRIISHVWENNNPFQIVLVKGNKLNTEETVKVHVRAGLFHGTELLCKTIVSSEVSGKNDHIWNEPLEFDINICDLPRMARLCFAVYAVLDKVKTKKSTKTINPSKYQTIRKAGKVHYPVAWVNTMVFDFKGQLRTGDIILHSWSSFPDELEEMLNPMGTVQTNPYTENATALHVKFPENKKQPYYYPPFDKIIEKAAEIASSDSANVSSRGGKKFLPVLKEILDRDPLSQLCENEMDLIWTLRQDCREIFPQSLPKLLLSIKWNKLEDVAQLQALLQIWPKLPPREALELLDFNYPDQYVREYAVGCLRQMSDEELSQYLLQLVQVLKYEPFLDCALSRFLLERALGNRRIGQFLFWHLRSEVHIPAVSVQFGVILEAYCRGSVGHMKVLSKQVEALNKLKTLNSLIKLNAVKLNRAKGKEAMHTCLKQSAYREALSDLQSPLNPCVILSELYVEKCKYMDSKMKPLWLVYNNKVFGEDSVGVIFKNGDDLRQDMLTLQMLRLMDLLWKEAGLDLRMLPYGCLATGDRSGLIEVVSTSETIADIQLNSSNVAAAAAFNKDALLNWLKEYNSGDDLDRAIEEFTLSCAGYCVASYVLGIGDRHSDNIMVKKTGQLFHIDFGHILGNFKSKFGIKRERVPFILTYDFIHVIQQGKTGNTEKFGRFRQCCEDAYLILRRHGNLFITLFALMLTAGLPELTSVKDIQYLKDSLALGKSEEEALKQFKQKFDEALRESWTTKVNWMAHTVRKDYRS
Sequence of PI3Kβ (P27986 whole entry partner): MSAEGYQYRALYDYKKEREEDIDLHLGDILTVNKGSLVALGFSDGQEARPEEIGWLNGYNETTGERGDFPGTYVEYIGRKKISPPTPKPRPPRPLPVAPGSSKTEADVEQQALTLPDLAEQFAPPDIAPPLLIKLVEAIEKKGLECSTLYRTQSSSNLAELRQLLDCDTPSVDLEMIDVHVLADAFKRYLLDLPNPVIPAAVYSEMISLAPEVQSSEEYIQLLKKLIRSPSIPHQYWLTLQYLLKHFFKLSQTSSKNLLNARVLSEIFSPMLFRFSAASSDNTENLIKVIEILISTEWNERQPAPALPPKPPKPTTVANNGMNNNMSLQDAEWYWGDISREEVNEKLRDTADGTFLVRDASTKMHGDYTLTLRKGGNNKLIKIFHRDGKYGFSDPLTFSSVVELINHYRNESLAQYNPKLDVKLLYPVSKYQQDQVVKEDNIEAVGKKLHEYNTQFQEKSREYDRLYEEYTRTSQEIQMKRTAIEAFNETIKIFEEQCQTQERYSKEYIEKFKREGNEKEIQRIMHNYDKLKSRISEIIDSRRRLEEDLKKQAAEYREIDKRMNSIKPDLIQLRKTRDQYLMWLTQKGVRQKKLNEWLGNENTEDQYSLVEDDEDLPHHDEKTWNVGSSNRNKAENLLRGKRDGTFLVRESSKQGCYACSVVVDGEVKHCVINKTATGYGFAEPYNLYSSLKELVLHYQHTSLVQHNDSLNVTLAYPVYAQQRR

Usually IC50 stands for the concentration that gives 50% inhibition. Regarding `Cc1nc2ncc(-c3ccc4c(c3)CN(c3nc(CN(C)C)nc5c3CC(C)(C)CC5)CCO4)cc2[nH]1` [Compound 693], the results for the IC50 on mTOR/GbL/Raptor (mTORC1) and against PI3Kβ were 6 nM and more than 3000 nM, respectively.
Consider `Cc1nc2cc(-c3ccc4c(c3)CN(c3nc(CN(C)C)nc(C)c3C(C)C)CCO4)cnc2[nH]1` [Compound 694], for which the concentration for half-maximal inhibition (IC50) on mTOR/GbL/Raptor (mTORC1) is 16 nM; at PI3Kβ, more than 3000 nM; in test [1] (setting [2]) it was 231 nM; in test [1] (setting [3]), 571 nM.
Turning to `COc1ccc2c(N3CCOc4ccc(-c5cnc6nc(C)[nH]c6c5)cc4C3)nc(CN(C)C)nc2c1` [Compound 696], the IC50 at mTOR/GbL/Raptor (mTORC1) was determined as 381 nM; against PI3Kβ it was 1310 nM; in test [1] (setting [2]) it was 1680 nM; in test [1] (setting [3]), 1860 nM.
`CCNc1nc2ccc(-c3ccc4c(c3)CN(c3ccnc5cc(F)ccc35)CCO4)cc2[nH]1` [Compound 698]: the IC50 on mTOR/GbL/Raptor (mTORC1) was determined as 120 nM; on PI3Kβ it was 1560 nM; in test [1] (setting [2]), 2870 nM; in test [1] (setting [3]), 4540 nM.
For the molecule `CCNc1nc2ccc(-c3ccc4c(c3)CN(c3ncnc(NCC)c3C)CCO4)cc2[nH]1` [Compound 699], the IC50 amounted to 252 nM at mTOR/GbL/Raptor (mTORC1), 1740 nM at PI3Kβ, 2120 nM in test [1] (setting [2]) and 3800 nM in test [1] (setting [3]).

(Values after patent US20140080810A1 (Exelixis, Inc., priority 2010, published 2014).)
